Reference: publication PMC4175002, “The Design and Synthesis of Potent and Selective Inhibitors of Trypanosoma brucei Glycogen Synthase Kinase 3 for the Treatment of Human African Trypanosomiasis” (Journal of Medicinal Chemistry, 2014)

Key:
Assay in all cases: Mammalian kinase profiling (DSTT panel)
Format in all cases: biochemical
PDK1 = molecular target: T1, PDK1 (Homo sapiens, UniProt O15530); conditions: 10 μM; average percentage of remaining activity
T1 construct: purchased Division of Signal Transduction Therapy (DSTT), University of Dundee
T1 sequence (O15530 1-556): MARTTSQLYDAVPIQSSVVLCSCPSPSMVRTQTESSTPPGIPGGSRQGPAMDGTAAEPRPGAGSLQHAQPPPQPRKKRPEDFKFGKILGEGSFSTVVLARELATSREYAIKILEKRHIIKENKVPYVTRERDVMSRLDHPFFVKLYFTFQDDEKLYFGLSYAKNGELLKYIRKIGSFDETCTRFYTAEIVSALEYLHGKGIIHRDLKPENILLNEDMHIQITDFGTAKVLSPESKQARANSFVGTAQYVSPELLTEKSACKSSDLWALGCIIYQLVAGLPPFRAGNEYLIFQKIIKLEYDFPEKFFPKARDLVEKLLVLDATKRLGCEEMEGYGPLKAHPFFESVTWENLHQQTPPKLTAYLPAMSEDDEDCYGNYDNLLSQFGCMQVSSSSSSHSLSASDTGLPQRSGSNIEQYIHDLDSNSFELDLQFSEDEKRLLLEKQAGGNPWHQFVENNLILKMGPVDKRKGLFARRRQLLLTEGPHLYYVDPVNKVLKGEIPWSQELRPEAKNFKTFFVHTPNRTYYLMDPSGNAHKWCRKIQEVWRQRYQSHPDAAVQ
Description: (§1) To assess the selectivity of the aminopyrazole inhibitors, remaining activity at 10 μM concentration was measured for compounds 4f, 4m, and 4y against a panel of 80 human PKs and for compound 9g against 124 human PKs. […] Compound 4m inhibited only two PKs, namely GSK3β and CDK2, at more than 80%.
(§2) Selected compounds were screened against a panel of mammalian kinases routinely run by the Division of Signal Transduction Therapy (DSTT) at the University of Dundee in duplicate at 10 μM.[32] Enzymes included in the panel and assay conditions are reported in the literature. All biochemical assays are run below the Km^app for the ATP for each enzyme, allowing comparison of inhibition across the panel.

PKBb = molecular target: T2, PKBb (Homo sapiens, UniProt P31751); conditions: average percentage of remaining activity, read-out: PKBb activity compared to the control
T2 construct: purchased Division of Signal Transduction Therapy (DSTT), University of Dundee
T2 sequence (P31751 whole entry): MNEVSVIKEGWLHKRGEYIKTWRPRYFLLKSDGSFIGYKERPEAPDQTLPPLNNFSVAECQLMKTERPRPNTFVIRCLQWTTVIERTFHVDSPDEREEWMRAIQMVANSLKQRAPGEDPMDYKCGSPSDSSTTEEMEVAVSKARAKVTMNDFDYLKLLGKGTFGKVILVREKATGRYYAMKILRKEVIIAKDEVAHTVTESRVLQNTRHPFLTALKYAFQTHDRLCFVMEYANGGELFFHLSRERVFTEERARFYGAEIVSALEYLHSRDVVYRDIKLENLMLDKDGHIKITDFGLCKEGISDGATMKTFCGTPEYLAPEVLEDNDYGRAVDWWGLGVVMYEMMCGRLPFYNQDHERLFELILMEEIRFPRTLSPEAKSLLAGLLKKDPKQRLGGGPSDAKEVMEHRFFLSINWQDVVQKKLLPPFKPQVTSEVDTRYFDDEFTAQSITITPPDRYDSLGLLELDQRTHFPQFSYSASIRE
Description: as §1, §2

CAMK1 = molecular target: T3, CAMK1 (Homo sapiens, UniProt Q14012); conditions: 10 μM; average percentage of remaining activity
T3 construct: purchased Division of Signal Transduction Therapy (DSTT), University of Dundee
T3 sequence (Q14012 whole entry): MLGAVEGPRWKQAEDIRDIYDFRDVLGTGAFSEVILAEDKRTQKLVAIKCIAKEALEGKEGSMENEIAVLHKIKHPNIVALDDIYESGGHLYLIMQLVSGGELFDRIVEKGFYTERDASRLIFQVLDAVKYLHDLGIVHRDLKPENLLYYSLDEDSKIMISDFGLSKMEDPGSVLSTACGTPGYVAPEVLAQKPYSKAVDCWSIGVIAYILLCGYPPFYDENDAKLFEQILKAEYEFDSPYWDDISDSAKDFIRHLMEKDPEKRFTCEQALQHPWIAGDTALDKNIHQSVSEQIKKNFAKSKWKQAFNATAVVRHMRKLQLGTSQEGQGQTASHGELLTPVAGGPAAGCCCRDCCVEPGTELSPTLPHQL
Description: as §1, §2

SGK1 = molecular target: T4, SGK1 (Homo sapiens, UniProt O00141); conditions: 10 μM; average percentage of remaining activity
T4 construct: purchased Division of Signal Transduction Therapy (DSTT), University of Dundee
T4 sequence (O00141 1-431): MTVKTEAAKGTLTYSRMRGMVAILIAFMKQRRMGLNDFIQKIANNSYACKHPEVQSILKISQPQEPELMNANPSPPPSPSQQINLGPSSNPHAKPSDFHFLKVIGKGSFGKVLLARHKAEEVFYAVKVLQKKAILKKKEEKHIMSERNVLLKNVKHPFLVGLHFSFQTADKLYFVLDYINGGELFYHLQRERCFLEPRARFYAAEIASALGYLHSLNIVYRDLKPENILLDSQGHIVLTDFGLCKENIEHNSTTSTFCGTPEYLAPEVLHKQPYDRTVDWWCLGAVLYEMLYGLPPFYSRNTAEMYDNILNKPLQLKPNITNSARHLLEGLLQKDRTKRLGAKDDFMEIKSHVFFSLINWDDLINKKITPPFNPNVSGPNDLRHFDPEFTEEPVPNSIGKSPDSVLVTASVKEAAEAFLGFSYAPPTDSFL
Description: as §1, §2

P38a MAPK = molecular target: T5, P38a MAPK (Homo sapiens, UniProt Q16539); conditions: 10 μM; average percentage of remaining activity
T5 construct: purchased Division of Signal Transduction Therapy (DSTT), University of Dundee
T5 sequence (Q16539 whole entry): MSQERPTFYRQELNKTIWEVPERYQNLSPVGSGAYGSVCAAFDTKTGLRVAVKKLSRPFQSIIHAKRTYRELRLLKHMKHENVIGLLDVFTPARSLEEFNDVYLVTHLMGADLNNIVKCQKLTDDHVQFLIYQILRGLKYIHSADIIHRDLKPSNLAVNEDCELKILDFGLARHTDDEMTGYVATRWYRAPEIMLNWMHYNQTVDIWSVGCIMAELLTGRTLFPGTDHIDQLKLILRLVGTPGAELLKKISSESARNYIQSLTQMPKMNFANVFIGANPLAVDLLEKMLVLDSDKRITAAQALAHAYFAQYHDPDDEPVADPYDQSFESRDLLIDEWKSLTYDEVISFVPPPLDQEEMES
Description: as §1, §2

CHK2 = molecular target: T6, CHK2 (Homo sapiens, UniProt O96017); conditions: 10 μM; average percentage of remaining activity
T6 construct: purchased Division of Signal Transduction Therapy (DSTT), University of Dundee
T6 sequence (O96017 whole entry): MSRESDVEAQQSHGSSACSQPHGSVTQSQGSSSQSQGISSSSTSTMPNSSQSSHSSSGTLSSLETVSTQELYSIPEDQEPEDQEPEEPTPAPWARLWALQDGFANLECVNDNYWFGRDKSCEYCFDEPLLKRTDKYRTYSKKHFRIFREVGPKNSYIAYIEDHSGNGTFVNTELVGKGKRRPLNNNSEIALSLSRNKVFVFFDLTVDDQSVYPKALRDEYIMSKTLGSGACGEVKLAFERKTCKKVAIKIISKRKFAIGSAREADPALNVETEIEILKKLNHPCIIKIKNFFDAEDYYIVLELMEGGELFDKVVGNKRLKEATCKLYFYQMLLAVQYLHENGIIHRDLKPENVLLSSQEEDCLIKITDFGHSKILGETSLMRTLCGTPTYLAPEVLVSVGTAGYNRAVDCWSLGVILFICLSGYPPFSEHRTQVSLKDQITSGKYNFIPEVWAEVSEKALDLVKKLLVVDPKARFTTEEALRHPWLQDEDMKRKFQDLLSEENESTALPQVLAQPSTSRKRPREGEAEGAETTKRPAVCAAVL
Description: as §1, §2

Lck = molecular target: T7, Lck (Homo sapiens, UniProt P06239); conditions: 10 μM; average percentage of remaining activity
T7 construct: purchased Division of Signal Transduction Therapy (DSTT), University of Dundee
T7 sequence (P06239 whole entry): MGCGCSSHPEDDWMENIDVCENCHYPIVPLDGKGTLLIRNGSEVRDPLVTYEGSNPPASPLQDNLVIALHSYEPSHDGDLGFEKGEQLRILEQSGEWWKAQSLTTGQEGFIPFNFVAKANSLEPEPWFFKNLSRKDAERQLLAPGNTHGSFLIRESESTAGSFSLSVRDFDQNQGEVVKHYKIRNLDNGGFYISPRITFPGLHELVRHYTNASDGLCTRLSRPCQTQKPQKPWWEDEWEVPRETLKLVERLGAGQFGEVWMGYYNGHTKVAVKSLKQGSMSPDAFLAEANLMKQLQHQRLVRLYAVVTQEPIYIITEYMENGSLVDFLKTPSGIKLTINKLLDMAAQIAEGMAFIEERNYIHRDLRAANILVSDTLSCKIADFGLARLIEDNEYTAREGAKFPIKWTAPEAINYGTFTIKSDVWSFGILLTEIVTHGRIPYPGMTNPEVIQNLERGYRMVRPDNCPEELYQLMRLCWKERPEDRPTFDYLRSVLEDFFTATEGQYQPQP
Description: as §1, §2

MNK1 = molecular target: T8, MNK1 (Homo sapiens, UniProt Q9BUB5); conditions: 10 μM; average percentage of remaining activity
T8 construct: purchased Division of Signal Transduction Therapy (DSTT), University of Dundee
T8 sequence (Q9BUB5 whole entry): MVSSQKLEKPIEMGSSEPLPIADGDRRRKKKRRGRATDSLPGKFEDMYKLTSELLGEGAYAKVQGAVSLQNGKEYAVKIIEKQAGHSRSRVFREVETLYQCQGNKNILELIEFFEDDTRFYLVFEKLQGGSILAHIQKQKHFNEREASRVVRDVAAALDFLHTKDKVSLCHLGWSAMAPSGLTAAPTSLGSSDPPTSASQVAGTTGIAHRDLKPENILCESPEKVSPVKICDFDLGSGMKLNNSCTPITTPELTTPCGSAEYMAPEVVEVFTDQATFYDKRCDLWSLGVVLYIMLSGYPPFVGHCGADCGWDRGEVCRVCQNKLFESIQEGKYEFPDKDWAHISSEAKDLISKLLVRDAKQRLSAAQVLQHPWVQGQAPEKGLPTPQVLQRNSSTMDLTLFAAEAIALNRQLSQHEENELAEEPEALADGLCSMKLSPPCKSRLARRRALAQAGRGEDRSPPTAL
Description: as §1, §2

IR-HIS = molecular target: T9, IR-HIS (Homo sapiens, UniProt P06213); conditions: 10 μM; average percentage of remaining activity
T9 construct: purchased Division of Signal Transduction Therapy (DSTT), University of Dundee
T9 sequence (P06213 28-1382): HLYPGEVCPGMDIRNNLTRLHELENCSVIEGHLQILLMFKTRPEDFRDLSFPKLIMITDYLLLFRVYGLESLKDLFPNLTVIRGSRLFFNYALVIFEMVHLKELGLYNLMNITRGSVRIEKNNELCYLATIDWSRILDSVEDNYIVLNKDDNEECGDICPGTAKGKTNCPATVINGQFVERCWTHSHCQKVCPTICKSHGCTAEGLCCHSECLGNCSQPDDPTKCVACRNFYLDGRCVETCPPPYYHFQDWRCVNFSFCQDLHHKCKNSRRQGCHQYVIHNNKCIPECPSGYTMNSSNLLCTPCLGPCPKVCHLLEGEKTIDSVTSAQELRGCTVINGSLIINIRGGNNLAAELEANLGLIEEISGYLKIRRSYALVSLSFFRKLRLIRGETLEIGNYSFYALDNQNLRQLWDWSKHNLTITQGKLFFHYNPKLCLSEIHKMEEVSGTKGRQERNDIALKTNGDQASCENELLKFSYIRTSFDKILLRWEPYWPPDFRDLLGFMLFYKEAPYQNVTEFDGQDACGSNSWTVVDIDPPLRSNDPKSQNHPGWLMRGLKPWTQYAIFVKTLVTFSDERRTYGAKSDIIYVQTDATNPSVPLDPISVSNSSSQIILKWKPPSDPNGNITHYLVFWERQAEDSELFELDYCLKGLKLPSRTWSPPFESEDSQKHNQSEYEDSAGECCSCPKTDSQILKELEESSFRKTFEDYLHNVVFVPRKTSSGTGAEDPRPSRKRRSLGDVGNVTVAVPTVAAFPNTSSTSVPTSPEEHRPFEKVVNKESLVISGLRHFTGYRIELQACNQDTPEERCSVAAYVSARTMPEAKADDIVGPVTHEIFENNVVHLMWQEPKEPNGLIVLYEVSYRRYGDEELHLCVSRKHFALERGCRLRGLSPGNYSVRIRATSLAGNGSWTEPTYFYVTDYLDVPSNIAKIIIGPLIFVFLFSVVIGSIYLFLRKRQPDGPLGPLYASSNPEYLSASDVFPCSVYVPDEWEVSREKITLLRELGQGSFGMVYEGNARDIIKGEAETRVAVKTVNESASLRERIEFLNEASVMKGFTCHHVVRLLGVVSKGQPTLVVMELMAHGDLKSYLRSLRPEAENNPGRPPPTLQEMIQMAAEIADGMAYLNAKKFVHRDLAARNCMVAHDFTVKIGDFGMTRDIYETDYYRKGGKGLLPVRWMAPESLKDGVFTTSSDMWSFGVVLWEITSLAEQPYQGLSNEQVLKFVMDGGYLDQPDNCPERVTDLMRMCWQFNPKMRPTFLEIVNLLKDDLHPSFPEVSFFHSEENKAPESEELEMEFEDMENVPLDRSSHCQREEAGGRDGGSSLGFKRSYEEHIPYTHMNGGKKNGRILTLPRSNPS
Description: as §1, §2

PKA = molecular target: T10, PKA (Homo sapiens, UniProt P17612); conditions: 10 μM; average percentage of remaining activity
T10 construct: purchased Division of Signal Transduction Therapy (DSTT), University of Dundee
Description: as §1, §2

MST2 = molecular target: T11, MST2 (Homo sapiens, UniProt Q13188); conditions: 10 μM; average percentage of remaining activity
T11 construct: purchased Division of Signal Transduction Therapy (DSTT), University of Dundee
T11 sequence (Q13188 1-491): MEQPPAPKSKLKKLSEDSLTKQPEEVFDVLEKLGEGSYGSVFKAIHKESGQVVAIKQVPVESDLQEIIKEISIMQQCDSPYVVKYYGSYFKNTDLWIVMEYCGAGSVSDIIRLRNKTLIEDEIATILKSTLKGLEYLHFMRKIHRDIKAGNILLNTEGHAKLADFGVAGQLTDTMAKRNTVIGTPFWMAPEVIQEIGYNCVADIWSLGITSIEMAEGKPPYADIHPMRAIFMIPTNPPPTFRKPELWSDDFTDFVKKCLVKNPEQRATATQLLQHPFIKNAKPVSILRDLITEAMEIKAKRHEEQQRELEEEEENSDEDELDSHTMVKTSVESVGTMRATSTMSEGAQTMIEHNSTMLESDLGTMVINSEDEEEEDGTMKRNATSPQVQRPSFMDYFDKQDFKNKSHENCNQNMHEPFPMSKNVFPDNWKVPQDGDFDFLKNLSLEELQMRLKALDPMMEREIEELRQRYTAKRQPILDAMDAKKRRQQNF
Description: as §1, §2

P38g MAPK = molecular target: T12, P38g MAPK (Homo sapiens, UniProt P53778); conditions: 10 μM; average percentage of remaining activity
T12 construct: purchased Division of Signal Transduction Therapy (DSTT), University of Dundee
T12 sequence (P53778 1-367): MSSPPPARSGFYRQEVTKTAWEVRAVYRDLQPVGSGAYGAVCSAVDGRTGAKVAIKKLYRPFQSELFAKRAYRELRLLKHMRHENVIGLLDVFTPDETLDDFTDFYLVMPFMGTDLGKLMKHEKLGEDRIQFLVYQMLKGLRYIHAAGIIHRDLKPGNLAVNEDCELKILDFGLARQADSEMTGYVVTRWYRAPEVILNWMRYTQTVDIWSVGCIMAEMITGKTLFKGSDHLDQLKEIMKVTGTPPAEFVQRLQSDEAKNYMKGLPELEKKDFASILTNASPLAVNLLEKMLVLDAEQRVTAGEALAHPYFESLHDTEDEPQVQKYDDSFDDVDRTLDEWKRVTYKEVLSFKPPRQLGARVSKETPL
Description: as §1, §2

Compound | PDK1 activity compared to the control (PDK1) | remaining activity at 10 µM (PKBb) | CAMK1 activity compared to the control (CAMK1) | SGK1 activity compared to the control (SGK1) | P38a MAPK activity compared to the control (P38a MAPK) | CHK2 activity compared to the control (CHK2) | Lck activity compared to the control (Lck) | MNK1 activity compared to the control (MNK1) | IR-HIS activity compared to the control (IR-HIS) | PKA activity compared to the control (PKA) | MST2 activity compared to the control (MST2) | P38g MAPK activity compared to the control (P38g MAPK)
CO[C@H]1CC[C@H](NC(=O)c2n[nH]cc2NC(=O)c2ccccc2)CC1 [Compound 4f, 4-Benzamido-N-(4-methoxycyclohexyl)-1H-pyrazole-3-carboxamide] | 87% | 45% | 36% | 89% | 81% | 100% | 76% | 76% | 84% | 81% | 72% | 60%
COc1cccc(OC)c1C(=O)Nc1c[nH]nc1C(=O)NC1CCC(OC)CC1 (stereo not drawn) [Compound 4m, 4-(2,6-Dimethoxybenzamido)-N-(4-methoxycyclohexyl)-1H-pyrazole-3-carboxamide] | 87% | 98% | 76% | 92% | 80% | 75% | 90% | 81% | 99% | 74% | 81% | 72%
CO[C@H]1CC[C@H](NC(=O)c2n[nH]cc2NC(=O)c2ccc(-c3ccccc3)o2)CC1 [Compound 4y, N-(4-Methoxycyclohexyl)-4-(5-phenylfuran-2-carboxamido)-1H-pyrazole-3-carboxamide] | 86% | 84% | 46% | 81% | 71% | 51% | 67% | 82% | 50% | 76% | 69% | 24%
